# Test system: PA (phosphatidic acid) formation in tat-transfected and tar-transfected cells
# Assay: PA mass / myrPA formation in serum-stimulated EB293, 293tat and 293tar cells
# Format: cell-based, human
# Description: Transformed and serum-stimulated cells were measured for total PA mass according to the methods described herein. […] The columns in FIG. 18 represent: (1) EB293 cells plus serum, (2) EB293 cells plus serum plus CT3556 (10 μM.), (3) 293tat cells plus serum, (4) 293tat cells plus serum plus CT3556 (10 μM.), (5) 293tar cells plus serum, and (6) 293tar cells plus serum plus CT3556 (10 μM.).
# This procedure begins with those cells that would be normally infected with a virus, such as a retrovirus. However, it is not necessary to utilize a cell line containing a retroviral genome, such as U1 cells. In view of the necessity to utilize containment facilities when using an infected cell line, it is preferable to utilize a macrophage cell line that is not infected. Examples of appropriate macrophage cell lines include, U937, THP1, U1, and P288s (available from standard sources, such as ATCC). The cells are stimulated with a stimulant with or without a candidate drug. Examples of stimulants include 3-5% serum, such as fetal calf serum, or tumor necrosis factor (TNF) (e.g., 20 ng/ml) both of which are standard laboratory reagents. After a time course (within 5 minutes, preferably within 1 minute), the cells are immersed in ice cold methanol to stop any cellular signaling reactions.
# One must first quantitatively and qualitatively separate PAs from the other lipids found in serum by a chemical extraction of lipids and high performance liquid chromatography (HPLC) to separate and detect PAs. Chemical extraction can be accomplished, for example, by the method of Bligh et al. (Canadian J. Biochem. Physiol. 37:911-917, 1959) or that of Folch et al. (J. Biol. Chem. 226:497-509, 1957). Briefly, the method of Bligh et al. involves an organic extraction of lipids from biological tissue homogenates or fluids. One volume of sample and three volumes of methanol:chloroform (2:1) are vigorously shaken for 2 min. One volume of chloroform is added and then shaken vigorously for 30 sec. One volume of water is added and then shaken vigorously for 30 sec. The mixture is filtered and the upper aqueous layer is discarded. The lower organic layer contains a mixture of lipid classes. The method of Folch et al. involves the extraction of lipids from biological tissue homogenates or body fluids. One volume of sample plus 20 volumes of chloroform:methanol (2:1) are vigorously shaken for 2 min. The mixture is filtered and an amount of 0.1 N KCl equal to 20% of the extraction mixture volume is added and the mixture is shaken vigorously for 2 min. The aqueous and organic phases are allowed to separate. The upper aqueous layer is discarded. The lower organic layer contains a mixture of lipid classes. Free fatty acids and neutral lipids can be separated from phospholipids by normal phase high performance liquid chromatography (HPLC) by modifying the method of Van Kessel et al. (Biochim et Biophys Acta 486:524-530, 1977). This method involves separation of lipids into their major classes by normal phase (silica) high performance liquid chromatography (HPLC). A 5 micron, 25 cm×0.45 cm silica HPLC column is connected to a binary solvent delivery system followed with a UV detector. The lipid sample is injected on the column and a solvent gradient is run at 1.0 ml/min. […]
# Transformed and serum-stimulated cells were measured for total PA mass according to the methods described herein. […]
compound,measurement,setting,value
"CCCCCCCCNCC(O)CCCCCCCCCn1c(=O)c2c(ncn2C)n(C)c1=O (centres unmarked) [CT2576, 1-(11-octylamino-10-hydroxyundecyl)-3,7-dimethylxanthine]",inhibition of myrPA formation in stimulated cells,"10 μM, tat-transfected cells stimulated with serum",inhibited myrPA formation in stimulated cells
same,"total PA mass, dose response","EB293 cells with tat expression plasmid, serum, 0 to one minute (FIG. 20)",dose response relationship

# From patent US5985926A, “Method for inhibiting intracellular viral replication” (Cell Therapeutics, Inc., priority 1997, dated 1999)
